Assay results published in ChEMBL document CHEMBL3045606, “Virtual screening and biochemical evaluation of the inhibitors of dual-specificity phosphatase 26” (Med Chem Res, 2013).

What follows are compounds tested against T1, Dual specificity protein phosphatase 26 (Homo sapiens, UniProt Q9BV47) (assay: inhibition of Homo sapiens (human) recombinant DUSP26 catalytic domain (61 to 211 amino acid residues) overexpressed in Escherichia coli BL21 (DE3) assessed as hydrolysis of 3-ortho-methylfluorescein phosphate after 30 min by spectrofluorometric analysis).
T1 sequence (Q9BV47 whole entry): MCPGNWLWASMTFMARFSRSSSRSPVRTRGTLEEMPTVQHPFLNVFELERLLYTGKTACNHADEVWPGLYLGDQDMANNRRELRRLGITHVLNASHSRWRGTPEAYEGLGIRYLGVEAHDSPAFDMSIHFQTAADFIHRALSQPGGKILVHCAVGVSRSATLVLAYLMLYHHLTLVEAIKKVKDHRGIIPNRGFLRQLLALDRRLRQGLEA

Question: How did the IC50 turn out when `O=C(O)CCN1C(=O)/C(=C/c2cn(-c3ccccc3)nc2-c2cccc([N+](=O)[O-])c2)SC1=S` was run?
Answer: 22.3 µM

Question: `O=C(O)c1cccc(N2C(=O)/C(=C\c3ccc(O)c(O)c3)SC2=S)c1` was tested. Which IC50 did it give?
Answer: 25.1 µM

Question: For `O=C(CN1C(=O)/C(=C\C=C\c2ccccc2)SC1=S)Nc1ccc(O)cc1C(=O)O`, which IC50 is on record?
Answer: 26.3 µM

Question: How did the IC50 turn out when `C=CCOc1ccc(/C=C2\SC(=S)N(c3cccc(C(=O)O)c3)C2=O)cc1` was run?
Answer: 30.2 µM

Question: `CCc1cc(CC)cc(OCCOc2ccccc2/C=C2/C(=O)NN(c3ccccc3)C2=O)c1` was tested. Which IC50 did it give?
Answer: 36.6 µM

Question: `CCN1C(=O)/C(=C/c2ccccc2OCc2ccccc2C#N)S/C1=N/c1ccc(C(=O)O)cc1` was tested. Which IC50 did it give?
Answer: 41.7 µM

Question: `O=C1OC(c2ccc(Cl)cc2)=C/C1=C\c1ccc(-c2cccc(C(=O)O)c2)o1` was tested. Which IC50 did it give?
Answer: > 100 µM

Question: With `Cc1ccc(C2=C/C(=C\c3ccc(-c4cccc(C(=O)O)c4)o3)C(=O)O2)cc1` as the compound, how does the IC50 read?
Answer: > 100 µM

Question: `CN1C(=O)/C(=C/c2ccc(OCc3cccc([N+](=O)[O-])c3)cc2)S/C1=N/c1cccc(C(=O)O)c1` was tested. Which IC50 did it give?
Answer: 19.8 µM

Question: Which IC50 does the source give for `CN1C(=O)/C(=C/c2ccc(OCc3ccc(F)cc3)cc2)S/C1=N/c1cccc(C(=O)O)c1` here?
Answer: 26.9 µM

Question: Which IC50 does the source give for `O=C1OC(c2ccc(Cl)cc2)=C/C1=C\c1ccc(-c2ccc(Cl)c(C(=O)O)c2)o1` here?
Answer: 8.9 µM

Question: For `CN1C(=O)/C(=C/c2ccc(OCc3cccc(F)c3)cc2)S/C1=N/c1cccc(C(=O)O)c1`, which IC50 is on record?
Answer: 12.5 µM

Question: For `O=C(O)c1ccc(Cl)cc1Nc1nc2ccccc2nc1NS(=O)(=O)c1ccc(Cl)cc1`, which IC50 is on record?
Answer: 17 µM

Each compound was assayed against T1, Dual specificity protein phosphatase 26 (assay: Inhibition of DUSP26 (unknown origin)-mediated p38 dephosphorylation).

Question: Which IC50 does the source give for `O=S(=O)(O)c1ccc2cc(/N=N/c3cc(S(=O)(=O)O)c4cccnc4c3O)ccc2c1` here?
Answer: 16.7 µM
